Test results taken from patent US5023376A, “Reduction of nitrosamine formation” (Interox America, priority 1989, dated 1991).
“Also recorded” adds a separate entry of the source. Counter-ions that a name gives are not always drawn. Like-named read-outs stand apart in the source and are kept apart here.

Experiments:
[1] = residual nitrosamine content measured by gas chromatography - thermal energy analyzer; details: for Residual Nitrosamine: Table 3; for Residual Nitrosamines: Table 2, sum of dimethylnitrosamine and dodecylmethylnitrosamine, mole ratio about 4.3:1
Description: In addition to determining the effect of the phosphonates upon the extent of the reaction, the residual content of nitrosamines was independently measured by gas chromatography - thermal energy analyzer, and Table 2 below gives the sum of the two principal nitrosamines, namely dimethylnitrosamine and dodecylmethylnitrosamine.

[2] = oxidation of dodecyldimethylamine with hydrogen peroxide under transition metal stress conditions in presence of phosphonate or other chelating agent (residual peroxide/amine, amine oxide yield, amine conversion)
Description: The residual amounts of peroxide and amine are the measured amounts in the mixture, the A O yield indicated is the weight percentage of measured amine oxide based on the amount of amine employed, assuming a purity of 97.5% and the amine conversion is based on the weight of the amine material (as 100%) that has been consumed.

[3] = chelating agent:metals mole ratio 4.3:1
[4] = Table 3, chelating agent:metals mole ratio 4.3:1
[5] = Table 1, amine oxide, based on amine employed, assuming purity of 97.5%, stress conditions, mole ratio about 4.3:1
[6] = Table 1, stress conditions, 2.5 ppm metals, phosphonate:metal mole ratio about 4.3:1
[7] = Table 1, weight of amine consumed, stress conditions, mole ratio about 4.3:1
[8] = Table 1, mole ratio ATMP:metals 7.3:1 (C 5)
[9] = Table 1, stress conditions, 2.5 ppm metals, […]
[10] = Table 1, phosphonate pre-mixed with the hydrogen peroxide solution (Ex 3)
[11] = Table 3, lower mole ratio 2.15:1 (Ex 10)

Compound	Residual Nitrosamine [1, 3] [ppb]	A O yield [2, 4] [wt %]	Amine Conversion [2, 4] [wt %]	Peroxide Consumed [2, 4] [wt %]	Residual Nitrosamines [1] [ppb]	A O yield [2, 5] [wt %]	Residual Amine [2, 6] [wt %]	Residual Peroxide [2, 6] [wt %]	Amine Conversion [2, 7] [wt %]	also measured
O=C(O)CN(CC(=O)O)C1CCCCC1N(CC(=O)O)CC(=O)O (stereo not shown) [CDTA, cyclohexane-1,2-diaminotetra(acetic acid), sodium salt]	3279	34.4	68.1	99.9						
O=P(O)(O)CN(CCCCCCN(CP(=O)(O)O)CP(=O)(O)O)CP(=O)(O)O [HDTMP, hexamethylenediaminetetra(methylene phosphonic acid)]	3834	37.0	58.7	99.6						effectiveness in the amine oxidation process (in words) ([2]; stress conditions, listed as C11): singularly ineffective; effectiveness in the amine oxidation process (in words) ([2]; stress conditions, listed as hexamethylenediaminotetra(methylenephosphonic acid)): significantly inferior
CC(O)(P(=O)(O)O)P(=O)(O)O [HEDP, hydroxyethylidene-1,1-diphosphonic acid]	10024	32.1	48.2	99.6						effectiveness in the amine oxidation process (in words) ([2]; stress conditions, listed as (hydroxyethylidene)diphosphonic acid): significantly inferior; effectiveness in the amine oxidation process (in words) ([2]; stress conditions, listed as C12): ineffective
O=P(O)(O)CN(CP(=O)(O)O)C1CCCCC1N(CP(=O)(O)O)CP(=O)(O)O (stereo not shown) [CDTMP, cyclohexanediaminotetra(methylenephosphonic acid), sodium salt]					1950	97.7	0.8	0.67	97.3	effectiveness in the amine oxidation process (in words) ([2]; stress conditions): very great amelioration of the problem
O=P(O)(O)CN1CCN(CP(=O)(O)O)CCN(CP(=O)(O)O)CCN(CP(=O)(O)O)CCN(CP(=O)(O)O)CCN(CP(=O)(O)O)CC1 [HCMP, hexacyclenehexa(methylenephosphonic acid)]					1056	97.1	0.9	0.76	96.8	effectiveness in the amine oxidation process (in words) ([2]; stress conditions): very great amelioration of the problem
O=P(O)(O)CN(CP(=O)(O)O)CP(=O)(O)O [ATMP, aminotris(methylenephosphonic acid) sodium salt]					11036	38.3			40.5	effect on residual nitrosamine content (in words) ([1]; text conclusion from Table 2): significantly worse; A O yield [2, 8]: 63.1 wt %; Amine Conversion [2, 8]: 65.7 wt %; Residual Amine [2, 8]: 9.9 wt %; Residual Peroxide [2, 8]: 0.02 wt %; Residual Amine [2, 9]: 17.3 wt %; Residual Peroxide [2, 9]: 0.02 wt %; effectiveness in the amine oxidation process (in words) ([2]; stress conditions, listed as C4, sodium salt): less amine conversion and a lower yield of amine oxide than the corresponding reaction to which no phosphonates had been introduced; effectiveness in the amine oxidation process (in words) ([2]; stress conditions, listed as C5, sodium salt): rather better than C4, but still very markedly worse than the results for Ex2/3, Ex6 or Ex7; effectiveness in the amine oxidation process (in words) ([2]; stress conditions, sodium salt): did not perform with similar effectiveness
O=P(O)(O)CN(CCN(CP(=O)(O)O)CP(=O)(O)O)CCN(CP(=O)(O)O)CP(=O)(O)O [DTPMP, diethylenetriaminepenta(methylenephosphonic acid), sodium salt]					251	96.2	1.6	0.72	94.4	Residual Nitrosamine ([1]; lower mole ratio 2.15:1 (Ex 10)): 1031 ppb; A O yield [2, 10]: 97.2 wt %; Amine Conversion [2, 10]: 96.7 wt %; Residual Amine [2, 10]: 0.9 wt %; Residual Peroxide [2, 10]: 0.66 wt %; A O yield [2, 11]: 98.8 wt %; Amine Conversion [2, 11]: 98.3 wt %; Peroxide Consumed [2, 11]: 83.1 wt %; effectiveness in the amine oxidation process (in words) ([2]; stress conditions, sodium salt): very great amelioration of the problem; also recorded: equally as good, or possibly even slightly better when introduced via the hydrogen peroxide solution
O=C([O-])CN(CCN(CC(=O)[O-])CC(=O)[O-])CC(=O)[O-].[Na+].[Na+].[Na+].[Na+] [EDTA, ethylenediaminetetra(acetic acid), sodium salt]	3421									A O yield [2]: 35.3 wt %; Amine Conversion [2]: 54.8 wt %; Peroxide Consumed [2]: 99.9 wt %
O=C(O)CN(CCN(CC(=O)O)CC(=O)O)CCN(CC(=O)O)CC(=O)O [DTPA, diethylenetriaminepenta(acetic acid), sodium salt]	7017	83.9	83.2	99.6						
O=P(O)(O)CN(CCN(CP(=O)(O)O)CP(=O)(O)O)CCN(CP(=O)(O)O)CP(=O)(O)O [DTPMPA]	1591	96.5	96.1	86.4						
